The source of these data is PMC4829348 (Journal of medicinal chemistry, 2016).

Molecules are shown by their SMILES. Like-named read-outs stand apart in the source and are kept apart here.

The target of test [1] is T1, S31N mutant of the A/M2 protein (Influenza A virus, UniProt P0DOF5, S31N). As to conditions: 100 µM drug; percent inhibition in TEVC assays was previously reported; cited from earlier work.
The target in test [2] is T1, S31N mutant of the A/M2 protein. Type of test: biochemical.
Another test deals with A/WSN/33 virus (M2-S31N). Type of test: cell-based, influenza A virus. To be noted: for EC50: read-out: Plaque Reduction EC50.

Regarding `Cc1cc(CNC23CC4CC(CC(C4)C2)C3)no1` [14a], the “% S31N inhibition” value in test [1] is 49/N.T. %.
Take `CCCc1cc(CNC23CC4CC(CC(C4)C2)C3)no1` [14b]: the “% S31N inhibition” value in test [2] is reported as 81/49%.
Regarding `c1c(CNC23CC4CC(CC(C4)C2)C3)noc1C1CC1` [14c], the “decrease of plaque number” value in the test with A/WSN/33 virus (M2-S31N) is on record as “more than 50%”.
For the compound `c1c(CNC23CC4CC(CC(C4)C2)C3)noc1C1CCC1` [14d], the “decrease of plaque number” value in the test on A/WSN/33 virus (M2-S31N) was “more than 50%”. The “% S31N inhibition” value in test [2] is on record as 84/N.T. %.
On to `COCc1cc(CNC23CC4CC(CC(C4)C2)C3)no1` [14e], for which the “% S31N inhibition” value in test [2] is listed as 39/N.T. %.
The same measure, in the same setting: the figure for `CC(C)c1cc(CNC23CC4CC(CC(C4)C2)C3)no1` [14f] is 80/55%.
Same read-out and setting: the figure for `CSC(C)(C)Cc1cc(CNC23CC4CC(CC(C4)C2)C3)no1` [14g] is 70/N.T. %; for `c1cc(-c2cc(CNC34CC5CC(CC(C5)C3)C4)no2)cs1` [14i] it is 90/N.T. %; for `c1coc(-c2cc(CNC34CC5CC(CC(C5)C3)C4)no2)c1` [14j] it is 84/N.T. %.
Same read-out and setting: the same measure for `COc1ccsc1-c1cc(CNC23CC4CC(CC(C4)C2)C3)no1` [14k]: 90/87%.
As to `c1ccc(-c2cc(CNC34CC5CC(CC(C5)C3)C4)no2)cc1` [14l], the “% S31N inhibition” value in test [1] is 91/N.T. %.
Take `Clc1ccccc1-c1cc(CNC23CC4CC(CC(C4)C2)C3)no1` [14m]: in test [2], the “% S31N inhibition” value is on record as 87/65%.
As to `Brc1ccccc1-c1cc(CNC23CC4CC(CC(C4)C2)C3)no1` [14n], the “% S31N inhibition” value in test [2] is given as 77/N.T. %.
Consider `Fc1cc(F)cc(-c2cc(CNC34CC5CC(CC(C5)C3)C4)no2)c1` [14o], for which the “% S31N inhibition” value in test [2] is listed as 78/N.T. %.
The same measure, in the same setting: the figure for `Fc1cccc(F)c1-c1cc(CNC23CC4CC(CC(C4)C2)C3)no1` [14p] is 85/68%.
On to `COc1ccc(-c2cc(CNC34CC5CC(CC(C5)C3)C4)no2)cc1` [14q], for which, in test [1], the “% S31N inhibition” value is on record as 87/N.T. %.
On to `COc1cccc(-c2cc(CNC34CC5CC(CC(C5)C3)C4)no2)c1` [14r], for which the “% S31N inhibition” value in test [2] is reported as 87/73%.
Still for that read-out and setting: the figure for `CSc1ccccc1-c1cc(CNC23CC4CC(CC(C4)C2)C3)no1` [14s] is 79/N.T. %.
In the case of `Cc1nc(CNC23CC4CC(CC(C4)C2)C3)no1` [18a], the “% S31N inhibition” value in test [1] is given as 60/N.T. %.
As to `CCCc1nc(CNC23CC4CC(CC(C4)C2)C3)no1` [18b], in test [2], the “% S31N inhibition” value was 77/19%.
With `CC(C)c1nc(CNC23CC4CC(CC(C4)C2)C3)no1` [18d], the “% S31N inhibition” value in test [1] is 70/N.T. %.
On to `CC(C)Cc1nc(CNC23CC4CC(CC(C4)C2)C3)no1` [18e], for which the “% S31N inhibition” value in test [2] is 62/N.T. %.
As to `c1csc(-c2nc(CNC34CC5CC(CC(C5)C3)C4)no2)c1` [18f], in test [1], the “% S31N inhibition” value is on record as 83/N.T. %.
For the compound `c1cc(-c2nc(CNC34CC5CC(CC(C5)C3)C4)no2)cs1` [18g], the “% S31N inhibition” value in test [2] is 81/N.T. %.
Consider `c1coc(-c2nc(CNC34CC5CC(CC(C5)C3)C4)no2)c1` [18h], for which the “% S31N inhibition” value in test [2] was 73/N.T. %.
On to `c1ccc(-c2nc(CNC34CC5CC(CC(C5)C3)C4)no2)cc1` [18i], for which, in test [1], the “% S31N inhibition” value is given as 75/N.T. %.
Regarding `COc1ccc(-c2nc(CNC34CC5CC(CC(C5)C3)C4)no2)cc1` [18k], the “% S31N inhibition” value in test [1] is reported as 86/N.T. %.
Consider `COc1ccc(-c2noc(CNC34CC5CC(CC(C5)C3)C4)n2)cc1OC` [20a], for which the “% S31N inhibition” value in test [2] is on record as 39/N.T. %.
On the same count and under the same terms, the same measure for `COc1ccccc1-c1noc(CNC23CC4CC(CC(C4)C2)C3)n1` [20b]: 58/N.T. %; for `c1c(C2CCCCC2)noc1CNC12CC3CC(CC(C3)C1)C2` [20c]: 67/N.T. %.
The same measure, in the same setting: the figure for `c1csc(-c2nnc(CNC34CC5CC(CC(C5)C3)C4)o2)c1` [26a] is 52/N.T. %; for `c1csc(-c2nnc(CNC34CC5CC(CC(C5)C3)C4)s2)c1` [26b] it is 83/N.T. %.
`c1ccc(-c2nnc(CNC34CC5CC(CC(C5)C3)C4)o2)cc1` [26c]: the “% S31N inhibition” value in test [2] is on record as 61/N.T. %.
Same read-out and setting: the figure for `COc1ccc(-c2nnc(CNC34CC5CC(CC(C5)C3)C4)o2)cc1` [26d] is 58/N.T. %; for `c1csc(-c2ncc(CNC34CC5CC(CC(C5)C3)C4)s2)c1` [26e] it is 75/N.T. %; for `c1csc(-c2nc(CNC34CC5CC(CC(C5)C3)C4)cs2)c1` [26h] it is 37/N.T. %.
For the compound `c1ccc(-c2nc(CNC34CC5CC(CC(C5)C3)C4)cs2)cc1` [26i], the “% S31N inhibition” value in test [2] is 24/N.T. %.
`O=C1C2CC3CC1CC(NCc1cc(-c4cccs4)on1)(C3)C2` [30a]: in test [2], the “% S31N inhibition” value is given as 78/N.T. %.
As to `OC1C2CC3CC1CC(NCc1cc(-c4cccs4)on1)(C3)C2` (centres unmarked) [30b], the concentration for a half-maximal effect (EC50) with A/WSN/33 virus (M2-S31N) was less than 1000 nM. The “% S31N inhibition” value in test [2] was 91/56%.
On to `CC1(O)C2CC3CC1CC(NCc1cc(-c4cccs4)on1)(C3)C2` (centres unmarked) [30c], for which, in test [2], the “% S31N inhibition” value is 87/48%.
For the compound `c1csc(-c2cc(CNC34CC5CC(C3)C3(CO3)C(C5)C4)no2)c1` (centres unmarked) [30d], the “% S31N inhibition” value in test [2] is on record as 61/N.T. %.
Same read-out and setting: the same measure for `c1csc(-c2cc(CNC34CC5COC(CC(C5)C3)C4)no2)c1` (centres unmarked) [30e]: 72/N.T. %.
Still for that read-out and setting: the figure for `NC12CC3CC(CC(C3)C1)C2` [AMT (1), amantadine, reference compound] is 36%.
On the same count and under the same terms, the same measure for `Oc1ccc(NC23CC4CC(CC(C4)C2)C3)c(O)c1` [compound 5]: 67%.
With `COc1ccc(-c2cc(CNC34CC5CC(CC(C5)C3)C4)no2)c(OC)c1` [compound 14t], the “% S31N inhibition” value in test [2] is recorded as 62/N.T. %.
In the case of `COc1ccc(-c2nc(CNC34CC5CC(CC(C5)C3)C4)no2)c(OC)c1` [compound 18m], the “% S31N inhibition” value in test [2] is on record as 82/N.T. %.
Take `OC12CC3CC(C1)CC(NCc1cc(-c4cccs4)on1)(C3)C2` [compound 30f]: the EC50 with A/WSN/33 virus (M2-S31N) was less than 1000 nM.
Consider `OC12CC3CC(O)(C1)CC(NCc1cc(-c4cccs4)on1)(C3)C2` [compound 30h], for which, in test [2], the “% S31N inhibition” value is 88/45%.

As a reminder, the EC50 is the midpoint of the concentration-response curve.
